Assay results: patent US20150336889A1, “INDOLE DERIVATIVES, PHARMACEUTICAL COMPOSITIONS CONTAINING SUCH INDOLES AND THEIR USE AS DNA METHYLATION MODULATORS” (IKERCHEM, S.L., priority 2012, published 2015)

Assays:
Human DNMT1 = molecular target: T1, Human DNMT1 (Homo sapiens, UniProt P26358); experiment: DNMT1 enzymatic activity inhibition, radioisotope-based 3H-SAM filter binding assay; format: biochemical; details: 1 μM SAM, 25 nM DNMT1, 0.005 mg/ml Poly(dI-dC), 30° C. 1 hour, 10-dose
T1 construct: a-a 2-1632, with N-terminal GST tag; GST (N)
T1 sequence (P26358 2-1632 isoform P26358-2): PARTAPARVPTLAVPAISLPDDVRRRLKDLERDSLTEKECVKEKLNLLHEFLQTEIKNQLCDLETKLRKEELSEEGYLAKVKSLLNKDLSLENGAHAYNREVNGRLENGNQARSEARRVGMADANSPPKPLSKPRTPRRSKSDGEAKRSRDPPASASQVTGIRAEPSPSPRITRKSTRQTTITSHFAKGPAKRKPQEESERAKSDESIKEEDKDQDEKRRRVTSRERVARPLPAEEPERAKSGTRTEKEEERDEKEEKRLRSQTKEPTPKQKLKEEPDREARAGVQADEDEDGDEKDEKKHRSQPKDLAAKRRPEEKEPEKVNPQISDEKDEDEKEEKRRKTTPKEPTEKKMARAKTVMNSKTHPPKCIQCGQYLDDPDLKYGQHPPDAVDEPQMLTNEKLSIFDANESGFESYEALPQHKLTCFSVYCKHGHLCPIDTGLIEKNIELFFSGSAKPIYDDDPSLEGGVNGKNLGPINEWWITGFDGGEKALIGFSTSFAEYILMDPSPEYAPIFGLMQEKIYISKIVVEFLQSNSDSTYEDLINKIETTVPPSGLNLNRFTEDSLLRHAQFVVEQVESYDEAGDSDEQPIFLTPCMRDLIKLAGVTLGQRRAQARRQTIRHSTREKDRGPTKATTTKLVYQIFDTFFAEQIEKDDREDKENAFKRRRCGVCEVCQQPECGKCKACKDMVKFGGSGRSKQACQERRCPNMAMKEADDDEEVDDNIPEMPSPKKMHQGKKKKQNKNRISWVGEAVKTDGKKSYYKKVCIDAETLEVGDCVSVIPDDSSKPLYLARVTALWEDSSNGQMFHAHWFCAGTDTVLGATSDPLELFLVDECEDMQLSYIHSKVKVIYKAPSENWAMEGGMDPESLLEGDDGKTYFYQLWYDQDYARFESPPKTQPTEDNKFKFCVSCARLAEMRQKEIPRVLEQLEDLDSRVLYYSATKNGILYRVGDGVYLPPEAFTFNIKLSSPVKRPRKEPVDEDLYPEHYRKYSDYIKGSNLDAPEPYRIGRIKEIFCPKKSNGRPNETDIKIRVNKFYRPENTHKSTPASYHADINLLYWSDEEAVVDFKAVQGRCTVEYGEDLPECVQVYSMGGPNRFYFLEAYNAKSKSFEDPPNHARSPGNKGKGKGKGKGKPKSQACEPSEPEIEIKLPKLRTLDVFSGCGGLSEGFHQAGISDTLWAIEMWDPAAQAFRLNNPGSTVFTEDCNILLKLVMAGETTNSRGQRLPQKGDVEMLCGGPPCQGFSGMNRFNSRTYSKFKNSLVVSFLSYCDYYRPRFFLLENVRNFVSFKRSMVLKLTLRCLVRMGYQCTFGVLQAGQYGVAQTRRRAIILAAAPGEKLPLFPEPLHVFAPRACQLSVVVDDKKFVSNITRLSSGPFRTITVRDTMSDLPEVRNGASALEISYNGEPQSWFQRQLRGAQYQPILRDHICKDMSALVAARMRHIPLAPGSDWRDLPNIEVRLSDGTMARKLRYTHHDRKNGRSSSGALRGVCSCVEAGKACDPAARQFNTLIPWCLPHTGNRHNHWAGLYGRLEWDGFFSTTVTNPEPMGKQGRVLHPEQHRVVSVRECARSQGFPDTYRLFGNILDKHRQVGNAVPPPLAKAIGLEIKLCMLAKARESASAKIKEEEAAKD
Protocol: The inhibition of the enzymatic activity of DNMT1 was tested using low volume radioisotope-based assay which uses tritium-labeled AdoMet (^3H-SAM) as a methyl donor. Inhibitors diluted in DMSO were added by using acoustic technology (Echo550, Labcyte Inc. Sunnyvale, Calif.) into enzyme/substrate mixture in nano-liter range. The reaction was initiated by the addition of ^3H-SAM, and incubated at 30° C. for 1 hour. Total final methylations on the substrate poly(dI-dC) were detected by a filter binding approach. Data analysis was performed using GraphPad Prism software (La Jolla, Calif.) for IC50 curve fits.

MCF-7 = experiment: Cancer cell growth inhibition, MCF-7; format: cell-based; details: Homo sapiens, MCF7; Breast, MCF-7, cell viability, 72 h
Protocol: (§1) Cell culture-based assays were used to evaluate the ability of compounds of the invention to inhibit cancer cell growth inhibition.
(§2) Cells were obtained from the American Type Culture Collection (ATCC) and European Collection of Cell Cultures (ECACC).
(§3) Cells were thawed in their appropriate media plus supplements (see table below). Cells were passaged at confluence by washing once in HBSS cation-free followed by a 3 minutes incubation with trypsin ([0.5 μg/ml]/EDTA [0.2 μg/ml]) (Gibco-BRL, 15400054) solution in HBSS at 37° C. (except non-adherent cell lines), and transferred to their appropriate media plus supplements. Prior to seeding at defined cell concentration, cells were recovered in medium, centrifuged and taken up in medium, and counted.
(§4) Cells were plated at 3000/5000/10000 cells/well in 100 μl media in tissue culture 96 well plates (Cultek). After 24 h, media was supplemented by 100 μl/well of diluted IPDNs at 100 μM.
(§5) The Hexosaminidase assay was used for the adherent cell lines, whereas the AlamarBlue® assay was used for the non-adherent cell lines.
(§6) Dose-response curves were generated by serial dilutions (1:1) of the compounds. […] Reagent blanks, containing media plus colorimetric reagent without cells were run on each plate. Blank values were subtracted from test values and were routinely 5-10% of uninhibited control values. Plates were incubated 72 h, and living cell number was determined by AlamarBlue® and Hexosaminidase test. The advantages of using those assays are that both can be done in the same microwell plate. AlamarBlue® assay: plates were incubated 72 h and living cell number was determined by AlamarBlue (Biosource DAL1100). After 4 h incubation at 37° C., relative fluorescent intensity, which correlates with the number of living cells, was read in a Cytofluor plate reader (Millipore) at 535/590 nm (Excitation/emission). The hexosaminidase activity was measured according to the following protocol: the media was removed and cells were washed once with PBS.
(§7) Data analysis was done by calculating the percentage of cell viability normalized in front of negative control values, which were considered as a 100%. The curve was adjusted using a sigmoidal dose-response (variable slope) equation and EC50 values were obtained from the equation
(§8) where, X is the logarithm of concentration. Y is the response. Bottom is the Y value at the bottom plateau Top is the Y value at the top plateau LogEC50 is the X value when the response is halfway between Bottom and Top. With different kinds of variables, this variable is sometimes called ED50 (effective dose, 50%), or IC50 (inhibitory concentration, 50%, used when the curve goes downhill).

SK-BR-3 = experiment: Cancer cell growth inhibition, SK-BR-3; format: cell-based; details: Homo sapiens; Breast, SK-BR-3, cell viability, 72 h
Protocol: as §1, §2, §3, §4, §5
as §6, with “PBS. […]” for “PBS.”

T47D = experiment: Cancer cell growth inhibition, T47D; format: cell-based; details: Homo sapiens, Breast, cell viability, 72 h
Protocol: as §1, §2, §3, §4, §5, §6, §7, §8

DU-145 = experiment: Cancer cell growth inhibition, DU-145; format: cell-based; details: Homo sapiens; Prostate, DU-145, cell viability, 72 h
Protocol: as §1, §2, §3, §4, §5
as §6, with “PBS. […]” for “PBS.”

PC3 = experiment: Cancer cell growth inhibition, PC3; format: cell-based; details: Homo sapiens, PC-3; Prostate, PC3, cell viability, 72 h
Protocol: as §1, §2, §3, §4, §5, §6, §7, §8

HCT-116 = experiment: Cancer cell growth inhibition, HCT-116; format: cell-based; details: Homo sapiens; Colorectal, HCT-116, cell viability, 72 h
Protocol: as §1, §2, §3, §4, §5, §6, §7, §8

Colo205 = experiment: Cancer cell growth inhibition, Colo205; format: cell-based; details: Homo sapiens, COLO 205; Colorectal, Colo205, cell viability, 72 h
Protocol: as §1, §2, §3, §4, §5
as §6, with “PBS. […]” for “PBS.”

A-549 = experiment: Cancer cell growth inhibition, A-549; format: cell-based; details: Homo sapiens, A549; Lung, A-549, cell viability, 72 h
Protocol: as §1, §2, §3, §4, §5, §6, §7, §8

HepG2 = experiment: Cancer cell growth inhibition, HepG2; format: cell-based; details: Homo sapiens; Liver, HepG2, cell viability, 72 h
Protocol: as §1, §2
as §3, with “counted. […]” for “counted.”
(§9) Dose-response curves were generated by serial dilutions (1:1) of the compounds. […] Plates were incubated 72 h, and living cell number was determined by AlamarBlue® and Hexosaminidase test. […] AlamarBlue® assay: plates were incubated 72 h and living cell number was determined by AlamarBlue (Biosource DAL1100). After 4 h incubation at 37° C., relative fluorescent intensity, which correlates with the number of living cells, was read in a Cytofluor plate reader (Millipore) at 535/590 nm (Excitation/emission). The hexosaminidase activity was measured according to the following protocol: the media was removed and cells were washed once with PBS. […]

HT-1080 = experiment: Cancer cell growth inhibition, HT-1080; format: cell-based; details: Homo sapiens; HT-1080, cell viability, 72 h
Protocol: as §1, §2, §3, §4, §5, §6, §7, §8

MiaPaCa-2 = experiment: Cancer cell growth inhibition, MiaPaCa-2; format: cell-based; details: Homo sapiens, MIA PaCa-2; Pancreatic, MiaPaCa-2, cell viability, 72 h
Protocol: as §1, §2, §3, §4, §5, §6, §7, §8

BxPC3 = experiment: Cancer cell growth inhibition, BxPC3; format: cell-based; details: Homo sapiens, BXPC-3; Pancreatic, BxPC3, cell viability, 72 h
Protocol: as §1, §2, §3, §4, §5
as §6, with “PBS. […]” for “PBS.”

RWPI = experiment: Cancer cell growth inhibition, RWPI; format: cell-based; details: Pancreatic, cell viability, 72 h
Protocol: as §1, §2
as §3, with “counted. […]” for “counted.”
as §9

MDA-MB-435 = experiment: Cancer cell growth inhibition, MDA-MB-435; format: cell-based; details: Homo sapiens; Melanoma, MDA-MB-435, cell viability, 72 h
Protocol: as §1, §2, §3, §4, §5, §6, §7, §8

143B = experiment: Cancer cell growth inhibition, 143B; format: cell-based; details: Homo sapiens, Osteosarcoma, cell viability, 72 h
Protocol: as §1, §2, §3, §4, §5, §6, §7, §8

OVCAR-3 = experiment: Cancer cell growth inhibition, OVCAR-3; format: cell-based; details: Homo sapiens; Ovarian, OVCAR-3, cell viability, 72 h
Protocol: as §1, §2
as §3, with “counted. […]” for “counted.”
as §9

A-431 = experiment: Cancer cell growth inhibition, A-431; format: cell-based; details: Homo sapiens; Epidermoid, A-431, cell viability, 72 h
Protocol: as §1, §2, §3, §4, §5, §6, §7, §8

CCFR-CEM = experiment: Cancer cell growth inhibition, CCFR-CEM; format: cell-based; details: Hematologic, cell viability, 72 h
Protocol: as §1, §2, §3, §4, §5, §6, §7, §8

Jurkat = experiment: Cancer cell growth inhibition, Jurkat; format: cell-based; details: Homo sapiens, Hematologic, cell viability, 72 h
Protocol: as §1, §2, §3, §4, §5, §6, §7, §8

K562 = experiment: Cancer cell growth inhibition, K562; format: cell-based; details: Homo sapiens; Hematologic, K562, cell viability, 72 h
Protocol: as §1, §2, §3, §4, §5
as §6, with “PBS. […]” for “PBS.”

RAMOS = experiment: Cancer cell growth inhibition, RAMOS; format: cell-based; details: Homo sapiens, Hematologic, cell viability, 72 h
Protocol: as §1, §2, §3, §4, §5, §6, §7, §8

Compound | IC50 (Human DNMT1) [µM] | EC50 (MCF-7) [µM] | EC50 (SK-BR-3) [µM] | EC50 (T47D) [µM] | EC50 (DU-145) [µM] | EC50 (PC3) [µM] | EC50 (HCT-116) [µM] | EC50 (Colo205) [µM] | EC50 (A-549) [µM] | EC50 (HepG2) [µM] | EC50 (HT-1080) [µM] | EC50 (MiaPaCa-2) [µM] | EC50 (BxPC3) [µM] | EC50 (RWPI) [µM] | EC50 (MDA-MB-435) [µM] | EC50 (143B) [µM] | EC50 (OVCAR-3) [µM] | EC50 (A-431) [µM] | EC50 (CCFR-CEM) [µM] | EC50 (Jurkat) [µM] | also measured
COc1cc(OC)c2c(-c3ccc(O)cc3)cn(CC(=O)c3ccc(O)cc3)c2c1 [Example 6, 1-(4-hydroxyphenyl)-2-[3-(4-hydroxyphenyl)-4,6-dimethoxy-1H-indol-1-yl]ethanone] | 27.9 | 6.2 | 3.8 | 11 | 16 | 51 | 5.7 | 16 | 11 | 19 | 9.7 | 5.5 | 15 | 25 | 4.3 | 19 | 7.2 | 11 | 6.3 | 1.9 | EC50 (K562): 13 µM; EC50 (RAMOS): 6.6 µM
O=C(Cn1cc(-c2ccc(O)cc2)c2c(F)cc(F)cc21)c1ccc(O)cc1 [Example 16, 2-[4,6-difluoro-3-(4-hydroxyphenyl)-1H-indol-1-yl]-1-(4-hydroxyphenyl) ethanone] | 22.5 | 41 | 59 | 31 | 65 | 83 | 37 | 31 | 39 | 44 | 52 | 61 | 34 | 46 | 57 | 31 | 47 | 66 | 57 | 30 | EC50 (K562): 51 µM; EC50 (RAMOS): 35 µM
